# Data from patent US11566007B2, “Ras inhibitors” (Revolution Medicines, Inc., priority 2019, dated 2023).
# Experiments:
# KRAS G13D = KRAS G13D (Homo sapiens (Human), UniProt P01116+P62937, G13D); assay: Ras-Raf (BRAF RBD) disruption / FRET / MOA assay, KRAS G13D; assay type: biochemical; settings: read-out: IC50* KRAS G13D FRET data
# How it was run: (§1)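 Ras:RAF disruption was scored as a fall in TR-FRET ratio relative to DMSO. Compound ranged in 3-fold steps over 10 points from 30 μM final; incubation ran 3 h at 25° C, detection antibodies a further 1.5 h. Reported as IC50.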
# NCI-H358 (K-Ras G12C) = assay: CellTiter-Glo cell viability assay, NCI-H358; assay type: cell-based, human; settings: Homo sapiens, NCI-H358, 120 h, NCI-H358, 5-day treatment; class symbols; read-out: Additional H358 Cell Viability assay data (K-Ras G12C, IC50)
# How it was run: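 Viability measured by CellTiter-Glo luminescence on day 5 following direct addition of compound to plated cells. Values expressed as percent of mean DMSO signal; curves fitted with a four-parameter logistic model.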
# KRAS G12V = KRAS G12V (Homo sapiens (Human), UniProt P01116+P62937, G12V); assay: Ras-Raf (BRAF RBD) disruption / FRET / MOA assay, KRAS G12V; assay type: biochemical; settings: read-out: IC50* KRAS G12V FRET data
# How it was run: as §1
# NRAS Q61K = NRAS Q61K (Homo sapiens (Human), UniProt P01111+P62937, Q61K); assay: Ras-Raf (BRAF RBD) disruption / FRET / MOA assay, NRAS Q61K; assay type: biochemical; settings: NRAS Q61K; Ras-Raf disruption/FRET/MOA assay; read-out: IC50* NRAS Q61K FRET data
# How it was run: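 TR-FRET disruption of nucleotide-loaded Ras binding to BRAF RBD via compound-driven ternary complex with cyclophilin A. Compound as 10-point 3-fold series from 30 μM final, 3 h at 25° C, then anti-His Eu-W1024 (10 nM) and anti-GST allophycocyanin (50 nM) for 1.5 h. IC50 from decreased FRET ratio versus DMSO.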
# KRAS G12S = KRAS G12S (Homo sapiens (Human), UniProt P01116+P62937, G12S); assay: Ras-Raf (BRAF RBD) disruption / FRET / MOA assay, KRAS G12S; assay type: biochemical; settings: Ras-Raf disruption/FRET/MOA assay; class symbols; read-out: KRAS G12S FRET data IC50
# How it was run: as §1
# KRAS G12D = KRAS G12D (Homo sapiens (Human), UniProt P01116+P62937, G12D); assay: Ras-Raf (BRAF RBD) disruption / FRET / MOA assay, KRAS G12D; assay type: biochemical; settings: Ras-Raf disruption/FRET/MOA assay; class symbols; read-out: KRAS G12D FRET data IC50
# How it was run: as §1
# KRAS G13D, sequence (P01116-2 other isoform, or with tags, fused parts or gaps G13D): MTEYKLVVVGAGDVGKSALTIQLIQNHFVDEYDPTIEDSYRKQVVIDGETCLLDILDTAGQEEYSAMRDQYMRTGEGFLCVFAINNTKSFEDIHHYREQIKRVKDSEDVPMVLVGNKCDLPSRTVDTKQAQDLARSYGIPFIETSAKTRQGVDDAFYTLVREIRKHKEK
# KRAS G13D, sequence (P62937 whole entry): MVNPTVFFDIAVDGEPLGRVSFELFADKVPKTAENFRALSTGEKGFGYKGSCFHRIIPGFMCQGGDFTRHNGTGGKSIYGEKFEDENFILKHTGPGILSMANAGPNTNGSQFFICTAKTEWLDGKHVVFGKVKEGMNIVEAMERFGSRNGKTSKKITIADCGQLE
# KRAS G12S, sequence (P01116-2 other isoform, or with tags, fused parts or gaps G12S): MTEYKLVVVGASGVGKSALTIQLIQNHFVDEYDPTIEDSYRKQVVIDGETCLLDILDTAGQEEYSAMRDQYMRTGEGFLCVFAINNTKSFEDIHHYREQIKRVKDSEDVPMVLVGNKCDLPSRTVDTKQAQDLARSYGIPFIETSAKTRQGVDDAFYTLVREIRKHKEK
# KRAS G12S, sequence (P62937 whole entry): as the sequence (P62937 whole entry) above
# KRAS G12D, sequence (P01116-2 other isoform, or with tags, fused parts or gaps G12D): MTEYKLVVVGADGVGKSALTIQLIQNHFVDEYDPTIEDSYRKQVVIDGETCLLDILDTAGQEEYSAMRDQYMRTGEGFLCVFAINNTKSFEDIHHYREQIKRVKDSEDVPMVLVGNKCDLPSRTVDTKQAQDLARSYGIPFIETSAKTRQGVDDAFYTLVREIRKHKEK
# KRAS G12D, sequence (P62937 whole entry): as the sequence (P62937 whole entry) above
# NRAS Q61K, sequence (P01111 whole entry Q61K): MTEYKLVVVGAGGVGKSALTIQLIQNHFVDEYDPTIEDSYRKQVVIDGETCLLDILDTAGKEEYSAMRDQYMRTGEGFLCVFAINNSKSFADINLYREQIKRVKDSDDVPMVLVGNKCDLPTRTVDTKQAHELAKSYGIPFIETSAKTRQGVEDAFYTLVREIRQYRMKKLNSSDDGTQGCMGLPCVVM
# NRAS Q61K, sequence (P62937 whole entry): as the sequence (P62937 whole entry) above
# KRAS G12V, sequence (P01116-2 other isoform, or with tags, fused parts or gaps G12V): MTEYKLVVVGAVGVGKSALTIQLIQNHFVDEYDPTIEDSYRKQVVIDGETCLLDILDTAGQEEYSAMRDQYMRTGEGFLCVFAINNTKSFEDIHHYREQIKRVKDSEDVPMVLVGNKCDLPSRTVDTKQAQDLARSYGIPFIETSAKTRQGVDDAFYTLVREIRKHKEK
# KRAS G12V, sequence (P62937 whole entry): as the sequence (P62937 whole entry) above
Compound,IC50 (KRAS G13D),IC50 (NCI-H358 (K-Ras G12C)),IC50 (KRAS G12V),IC50 (NRAS Q61K),IC50 (KRAS G12S),IC50 (KRAS G12D)
"C=CC(=O)Nc1ccc(C(=O)N(C)[C@H](C(=O)N[C@H]2Cc3cc(O)cc(c3)-c3ccc4c(c3)c(c(-c3cccnc3[C@H](C)OC)n4CC)CC(C)(C)COC(=O)[C@@H]3CCCN(N3)C2=O)C(C)C)nc1 (atropisomer, axis not shown) [Example A252]",100 to 1000 nM,10 to 100 nM,100 to 1000 nM,1000 to 10000 nM,100 to 1000 nM,1000 to 10000 nM
"C=CC(=O)N1CCN(C(=O)N(C)[C@H](C(=O)N[C@H]2Cc3cc(O)cc(c3)-c3ccc4c(c3)c(c(-c3cccnc3[C@H](C)OC)n4CC)CC(C)(C)COC(=O)[C@@H]3CCCN(N3)C2=O)C(C)C)CC1 (atropisomer, axis not shown) [Example A262]",10 to 100 nM,10 to 100 nM,10 to 100 nM,10 to 100 nM,10 to 100 nM,100 to 1000 nM
"C=CS(=O)(=O)N1CC2(CCN([C@H](C(=O)N[C@H]3Cc4cc(O)cc(c4)-c4ccc5c(c4)c(c(-c4cccnc4[C@H](C)OC)n5CC)CC(C)(C)COC(=O)[C@@H]4CCCN(N4)C3=O)C(C)C)C2=O)C1 (atropisomer, axis not shown) [Example A297]",100 to 1000 nM,10 to 100 nM,100 to 1000 nM,10 to 100 nM,100 to 1000 nM,1000 to 10000 nM
"C=CC(=O)N1CC[C@H](C(=O)N(C)[C@H](C(=O)N[C@H]2Cc3cccc(c3)-c3ccc4c(c3)c(c(-c3cccnc3[C@H](C)OC)n4CC(F)(F)F)CC(C)(C)COC(=O)[C@@H]3CCCN(N3)C2=O)C(C)C)C1 (atropisomer, axis not shown) [Example A332]",1000 to 10000 nM,< 10 nM,1000 to 10000 nM,1000 to 10000 nM,1000 to 10000 nM,1000 to 10000 nM
"C=CC(=O)N1CC[C@H](C(=O)N(C)[C@H](C(=O)N[C@H]2Cc3cc(F)cc(c3)-c3ccc4c(c3)c(c(-c3cccnc3[C@H](C)OC)n4CC)CC(C)(C)COC(=O)[C@@H]3CCCN(N3)C2=O)C(C)C)C1 (atropisomer, axis not shown) [Example A342]",1000 to 10000 nM,10 to 100 nM,1000 to 10000 nM,1000 to 10000 nM,1000 to 10000 nM,1000 to 10000 nM
"CCn1c(-c2cccnc2[C@H](C)OC)c2c3cc(ccc31)-c1cccc(c1)C[C@H](NC(=O)[C@@H](COC1CN(C(=O)C#CC(C)(C)N3CCC3)C1)C(C)C)C(=O)N1CCC[C@H](N1)C(=O)OCC(C)(C)C2 (atropisomer, axis not shown) [Example A346]",> 10000 nM,< 10 nM,1000 to 10000 nM,> 10000 nM,> 10000 nM,> 10000 nM
"CO[C@@H](C)c1ncccc1-c1c2c3cc(ccc3n1CC(F)(F)F)-c1cc(F)cc(c1)C[C@H](NC(=O)[C@@H](COC1CN(C(=O)C#CC(C)(C)N(C)C)C1)C(C)C)C(=O)N1CCC[C@H](N1)C(=O)OCC(C)(C)C2 (atropisomer, axis not shown) [Example A348]",> 10000 nM,< 10 nM,1000 to 10000 nM,> 10000 nM,1000 to 10000 nM,> 10000 nM
"CCn1c(-c2cccnc2[C@H](C)OC)c2c3cc(ccc31)-c1cccc(c1)C[C@H](NC(=O)[C@H](C(C)C)N1CO[C@]3(CCN(C(=O)C#CC(C)(C)N4CCC4)C3)C1=O)C(=O)N1CCC[C@H](N1)C(=O)OCC(C)(C)C2 (atropisomer, axis not shown) [Example A351]",1000 to 10000 nM,< 10 nM,1000 to 10000 nM,1000 to 10000 nM,100 to 1000 nM,1000 to 10000 nM
"C=CC(=O)N1CC[C@@]2(CCN(C(=O)N(C)[C@H](C(=O)N[C@H]3Cc4nc(cs4)-c4ccc5c(c4)c(c(-c4cccnc4[C@H](C)OC)n5CC)CC(C)(C)COC(=O)[C@@H]4CCCN(N4)C3=O)C(C)C)C2)C1 (atropisomer, axis not shown) [Example A367]",100 to 1000 nM,10 to 100 nM,100 to 1000 nM,10 to 100 nM,10 to 100 nM,100 to 1000 nM
"C=CC(=O)N(C)CC1CN(C(=O)N(C)[C@H](C(=O)N[C@H]2Cc3nc(cs3)-c3ccc4c(c3)c(c(-c3cccnc3[C@H](C)OC)n4CC)CC(C)(C)COC(=O)[C@@H]3CCCN(N3)C2=O)C(C)C)C1 (atropisomer, axis not shown) [Example A368]",100 to 1000 nM,< 10 nM,10 to 100 nM,10 to 100 nM,100 to 1000 nM,100 to 1000 nM
"C=CC(=O)N1CC[C@]2(C1)OCN([C@H](C(=O)N[C@H]1Cc3cccc(c3)-c3ccc4c(c3)c(c(-c3cccnc3[C@H](C)OC)n4CC)CC(C)(C)COC(=O)[C@@H]3CCCN(N3)C1=O)C(C)C)C2=O (atropisomer, axis not shown) [Example A371]",> 10000 nM,< 10 nM,> 10000 nM,> 10000 nM,1000 to 10000 nM,> 10000 nM
"CO[C@@H](C)c1ncccc1-c1c2c3cc(ccc3n1CC(F)(F)F)N1CCO[C@@H](C[C@H](NC(=O)[C@@H](COC3CN(C(=O)C#CC(C)(C)N(C)C)C3)C(C)C)C(=O)N3CCC[C@H](N3)C(=O)OCC(C)(C)C2)C1 (atropisomer, axis not shown) [Example A375, (2R)-2-(((1-(4-(dimethylamino)-4-methylpent-2-ynoyl)azetidin-3-yl)oxy)methyl)-N-((2^2S,6^3S,4S)-1^2-(2-((S)-1-methoxyethyl)pyridin-3-yl)-10,10-dimethyl-5,7-dioxo-1^1-(2,2,2-trifluoroethyl)-6^1,6^2,6^3,6^4,6^5,6^6-hexahydro-1^1H-8-oxa-2(4,2)-morpholina-1(5,3)-indola-6(1,3)-pyridazinacycloundecaphane-4-yl)-3-methylbutanamide]",> 10000 nM,< 10 nM,1000 to 10000 nM,> 10000 nM,> 10000 nM,> 10000 nM
"C=CC(=O)N(C)[C@@H]1CCCN(C(=O)N(C)[C@H](C(=O)N[C@H]2Cc3nc(cs3)-c3ccc4c(c3)c(c(-c3cccnc3[C@H](C)OC)n4CC)CC(C)(C)COC(=O)[C@@H]3CCCN(N3)C2=O)C(C)C)C1 (atropisomer, axis not shown) [Example A382]",100 to 1000 nM,< 10 nM,100 to 1000 nM,10 to 100 nM,10 to 100 nM,100 to 1000 nM
"C=CC(=O)N(C)C1CCN(C(=O)N(C)[C@H](C(=O)N[C@H]2Cc3nc(cs3)-c3ccc4c(c3)c(c(-c3cccnc3[C@H](C)OC)n4CC)CC(C)(C)COC(=O)[C@@H]3CCCN(N3)C2=O)C(C)C)CC1 (atropisomer, axis not shown) [Example A383]",100 to 1000 nM,< 10 nM,10 to 100 nM,10 to 100 nM,10 to 100 nM,100 to 1000 nM
"C=CC(=O)N1C[C@@H](C)N(C(=O)N(C)[C@H](C(=O)N[C@H]2Cc3nc(cs3)-c3ccc4c(c3)c(c(-c3cccnc3[C@H](C)OC)n4CC)CC(C)(C)COC(=O)[C@@H]3CCCN(N3)C2=O)C(C)C)[C@H](C)C1 (atropisomer, axis not shown) [Example A388]",10 to 100 nM,< 10 nM,10 to 100 nM,< 10 nM,10 to 100 nM,10 to 100 nM
